Measured values taken from patent publication US20020006399A1, “Therapeutic uses of hormonal manipulation using combinations of various agents to treat atherosclerosis” (priority 1999, published 2002).
Structures can show the parent of a compound that is named as a salt.

What was measured:
Type in all cases: in vivo
prostate cancer patients = assay: Retrospective chart review: cardiac events in prostate cancer patients treated with LHRH inhibitors vs controls; conditions: for Events/Year: cardiac events per subject year, Total Control .0338; for observed difference between the proportions vs Total Control: events/year, treated group vs Total Control (Groups 1 + 4); for Cardiac Events: heart attack, coronary artery bypass or angioplasty, on drug at least one year, Total Control 32 events over 948 subject years; for heart attacks compared with controls: treated patients vs controls
Protocol: Another retrospective study was performed which compared the rates of patient reported heart attack in several groups 1-control group of males entering the urology office for any routine complaint. 2-a group of prostate cancer patients treated with Leuprolide acetate, a LHRH inhibitor. 3-a group of prostate cancer patients treated with Goserelin acetate (Zoladex), a LHRH inhibitor. 4-a group of prostate cancer patients not treated with hormonal manipulation (neither Leuprolide or Goserelin). 5-all patients on LHRH inhibitors (group 2+group 3). The patients on either Leuprolide or Goserelin were treated with the recommended doses indicated for the treatment of prostatic carcinoma, at either one or three month intervals depending on the preparation used. Leuprolide was dosed at 7.5 mg monthly (single intramuscular injection) or at 22.5 mg at 3 month intervals (single intramuscular injection). Goserelin was dosed at 3.6 mg monthly or at a dose of 10.8 mg at 3 month intervals (subcutaneous injection). The various groups of office patients were evaluated by chart […]. In groups 2 and 3 only those on drug for at least one year were considered. Cardiac event is defined either the history of a heart attack or occurrence of coronary artery bypass or angioplasty. In control groups only events occurring in the 3 years prior to the questionnaire are charted.

[1] = tested on: patients diagnosed with benign prostatic hypertrophy; assay: First retrospective study: cardiac events (cardiac bypass or heart attack) in BPH patients on finasteride vs alpha-blocker control; conditions: finasteride treated group of 22 subjects, 61 subject-years, on drug at least a year, 5 mg oral tablet a day; control 7 events over 288 subject-years
Protocol: Finasteride was being administered at a dosage of a single oral 5 mg tablet a day. This is the same tablet used in treatment of BPH as disclosed in U.S. Pat. No. 5,175,155 and such dosage applies in the present invention. However, use of a 2 mg or 10 mg oral tablet is contemplated. Two studies were undertaken to determine whether finasteride was, in fact, effective in lessening the incidence of heart disease and other complications of atherosclerosis. The result of the first study is as follows; A list of patients diagnosed with benign prostatic hypertrophy in late 1992 and 1993 was located. Treatment had been initiated with either finasteride or another oral agent of a different class (alpha-blocker). Patients were then contacted and an interval history was taken. In the control group of 45 subjects, 7 events (either cardiac bypass or heart attack) occurred in 6 subjects over 288 subject-years. In the finasteride treated group of 22 subjects there were no events over 61 subject-years. […] (95% Cl equal to 0.65% to 4.2%).

patients of the practice = assay: Second study: questionnaire on cardiac events in patients of the practice treated with finasteride
Protocol: Finasteride was being administered at a dosage of a single oral 5 mg tablet a day. This is the same tablet used in treatment of BPH as disclosed in U.S. Pat. No. 5,175,155 and such dosage applies in the present invention. However, use of a 2 mg or 10 mg oral tablet is contemplated. Two studies were undertaken to determine whether finasteride was, in fact, effective in lessening the incidence of heart disease and other complications of atherosclerosis. In the second study patients of the practice were given a questionnaire. Various patients had been treated with finasteride for varying lengths of time. Only those on the drug for at least one year were considered. The average time on finasteride was 3 years. The number of cardiac events occurring in the patients taking finasteride was only 4 events over 242 patient-years. (1.6%/yr.) In the control group 26 events occurred in the 3 years prior over 732 patient-years. (3.5%/yr.) The 45% decrease observed in cardiac events is believed to be significant. (90% Cl equal to 1.4% to 3.7%).

[2] = tested on: patients treated for benign prostatic hypertrophy; assay: Clinical observation of patients given finasteride for benign prostatic hypertrophy; conditions: finasteride single oral 5 mg tablet a day for BPH
Protocol: Finasteride was being administered at a dosage of a single oral 5 mg tablet a day. This is the same tablet used in treatment of BPH as disclosed in U.S. Pat. No. 5,175,155 and such dosage applies in the present invention. However, use of a 2 mg or 10 mg oral tablet is contemplated.

Compound	Events/Year (prostate cancer patients)	observed difference between the proportions vs Total Control (prostate cancer patients)	Cardiac Events (prostate cancer patients)	heart attacks compared with controls (prostate cancer patients)	events (either cardiac bypass or heart attack) [1]	cardiac event rate (patients of the practice; 4 events over 242 patient-years, control 3.5%/yr)	decrease observed in cardiac events (patients of the practice; finasteride vs control group)	number of cardiac events (patients of the practice; over 242 patient-years, on drug at least one year, average 3 years, control 26 events over 732 patient-years)	incidence of atherosclerosis and heart disease (observation) [2]
CCNC(=O)[C@@H]1CCCN1C(=O)[C@H](CCCNC(=N)N)NC(=O)[C@H](CC(C)C)NC(=O)[C@@H](CC(C)C)NC(=O)[C@H](Cc1ccc(O)cc1)NC(=O)[C@H](CO)NC(=O)[C@H](Cc1c[nH]c2ccccc12)NC(=O)[C@H](Cc1c[nH]cn1)NC(=O)[C@@H]1CCC(=O)N1 [Lupron, 5-oxo-L-prolyl-L-histidyl-L-tryptophyl-L-seryl-L-tyrosyl-D-leucyl-L-leucyl-L-arginyl-N-ethyl-L-prolinamide acetate (salt)]	.00847	0.253	1	fewer heart attacks than controls	–	–	–	–	–
CC(C)C[C@H](NC(=O)[C@@H](COC(C)(C)C)NC(=O)[C@H](Cc1ccc(O)cc1)NC(=O)[C@H](CO)NC(=O)[C@H](Cc1c[nH]c2ccccc12)NC(=O)[C@H](Cc1cnc[nH]1)NC(=O)[C@@H]1CCC(=O)N1)C(=O)N[C@@H](CCCNC(=N)N)C(=O)N1CCC[C@H]1C(=O)NNC(N)=O [Zoladex, pyro-Glu-His-Trp-Ser-Tyr-D-Ser(Bu)-Leu-Arg-Pro-Azgly-NH2 acetate]	.0161	0.0177	1	fewer heart attacks than controls	–	–	–	–	–
CC(C)(C)NC(=O)[C@H]1CC[C@H]2[C@@H]3CC[C@H]4NC(=O)C=C[C@]4(C)[C@H]3CC[C@]12C [finasteride, 4-azaandrost-1-ene-17-carboxamide, N-(1,1-dimethylethyl)-3oxo-(5alpha 17beta)-]	–	–	–	–	no events	1.6 %/yr	45%	4 events	lower incidence of atherosclerosis and heart disease
